# Measurements as given in PubChem BioAssay (NCI).
#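 48-hour exposure; five concentrations; linearly interpolated endpoints. TGI denotes the concentration required for complete inhibition of growth.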
# What was measured:
# Assay in all cases: NCI tumour cell line growth inhibition, 48 h
# MOLT-4 leukemia = system: MOLT-4 leukemia
# SNB-78 CNS = system: SNB-78 CNS
# CCRF-CEM leukemia = system: CCRF-CEM leukemia
# NCI-H23 lung = system: NCI-H23 lung
# SK-MEL-28 melanoma = system: SK-MEL-28 melanoma
# HCT-116 colon = system: HCT-116 colon
# SF-539 CNS = system: SF-539 CNS
# RXF-631 renal = system: RXF-631 renal
# HT29 colon = system: HT29 colon
# LXFL 529 NSCLC = system: LXFL 529 NSCLC
# SF-268 CNS = system: SF-268 CNS
# HCC-2998 colon = system: HCC-2998 colon
# SNB-19 CNS = system: SNB-19 CNS
# UO-31 renal = system: UO-31 renal
# ACHN renal = system: ACHN renal
# M14 melanoma = system: M14 melanoma
# DMS 273 small cell lung = system: DMS 273 small cell lung
# NCI-H522 lung = system: NCI-H522 lung
# SN12C renal = system: SN12C renal
# SK-MEL-2 melanoma = system: SK-MEL-2 melanoma
# DLD-1 colon = system: DLD-1 colon
# XF 498 CNS = system: XF 498 CNS
# SNB-75 CNS = system: SNB-75 CNS
# SK-MEL-5 melanoma = system: SK-MEL-5 melanoma
# SK-OV-3 ovarian = system: SK-OV-3 ovarian
# COLO 205 colon = system: COLO 205 colon
# KM12 colon = system: KM12 colon
# HOP-92 NSCLC = system: HOP-92 NSCLC
# HL-60(TB) leukemia = system: HL-60(TB) leukemia
# IGROV1 ovarian = system: IGROV1 ovarian
# KM20L2 colon = system: KM20L2 colon
# 786-0 renal = system: 786-0 renal
# OVCAR-8 ovarian = system: OVCAR-8 ovarian
# SF-295 CNS = system: SF-295 CNS
# SW-620 colon = system: SW-620 colon
# DMS 114 small cell lung = system: DMS 114 small cell lung
# OVCAR-3 ovarian = system: OVCAR-3 ovarian
# M19-MEL melanoma = system: M19-MEL melanoma
# MALME-3M melanoma = system: MALME-3M melanoma
# NCI-H226 lung = system: NCI-H226 lung
# RPMI-8226 leukemia = system: RPMI-8226 leukemia
# HCT-15 colon = system: HCT-15 colon
# A549 NSCLC = system: A549 NSCLC
# OVCAR-5 ovarian = system: OVCAR-5 ovarian
# HOP-62 NSCLC = system: HOP-62 NSCLC
# CAKI-1 renal = system: CAKI-1 renal
# U251 CNS = system: U251 CNS
# TK-10 renal = system: TK-10 renal
# UACC-62 melanoma = system: UACC-62 melanoma
# LOX IMVI melanoma = system: LOX IMVI melanoma
# A498 renal = system: A498 renal
# NCI-H460 lung = system: NCI-H460 lung
# RXF 393 renal = system: RXF 393 renal
# K-562 leukemia = system: K-562 leukemia
# EKVX NSCLC = system: EKVX NSCLC
# HOP-18 NSCLC = system: HOP-18 NSCLC
# OVCAR-4 ovarian = system: OVCAR-4 ovarian
# UACC-257 melanoma = system: UACC-257 melanoma
# SR leukemia = system: SR leukemia
compound,measurement,setting,value
CCC1(CN(C)C)CC/C(=C\c2ccc(OC)c(OC)c2)C1=O (stereo unspecified),TGI,MOLT-4 leukemia,> 100 µM
same,TGI,SNB-78 CNS,> 100 µM
same,TGI,CCRF-CEM leukemia,> 100 µM
same,TGI,NCI-H23 lung,> 100 µM
same,TGI,SK-MEL-28 melanoma,> 100 µM
same,TGI,HCT-116 colon,> 100 µM
same,TGI,SF-539 CNS,> 100 µM
same,TGI,RXF-631 renal,> 100 µM
same,TGI,HT29 colon,> 100 µM
same,TGI,LXFL 529 NSCLC,> 100 µM
same,TGI,SF-268 CNS,> 100 µM
same,TGI,HCC-2998 colon,> 100 µM
same,TGI,SNB-19 CNS,> 100 µM
same,TGI,UO-31 renal,> 100 µM
same,TGI,ACHN renal,> 100 µM
same,TGI,M14 melanoma,> 100 µM
same,TGI,DMS 273 small cell lung,> 100 µM
same,TGI,NCI-H522 lung,> 100 µM
same,TGI,SN12C renal,> 100 µM
same,TGI,SK-MEL-2 melanoma,> 100 µM
same,TGI,DLD-1 colon,> 100 µM
same,TGI,XF 498 CNS,> 100 µM
same,TGI,SNB-75 CNS,> 100 µM
same,TGI,SK-MEL-5 melanoma,> 100 µM
same,TGI,SK-OV-3 ovarian,> 100 µM
same,TGI,COLO 205 colon,> 100 µM
same,TGI,KM12 colon,> 100 µM
same,TGI,HOP-92 NSCLC,> 100 µM
same,TGI,HL-60(TB) leukemia,> 100 µM
same,TGI,IGROV1 ovarian,> 100 µM
same,TGI,KM20L2 colon,> 100 µM
same,TGI,786-0 renal,> 100 µM
same,TGI,OVCAR-8 ovarian,> 100 µM
same,TGI,SF-295 CNS,> 100 µM
same,TGI,SW-620 colon,> 100 µM
same,TGI,DMS 114 small cell lung,> 100 µM
same,TGI,OVCAR-3 ovarian,> 100 µM
same,TGI,M19-MEL melanoma,> 100 µM
same,TGI,MALME-3M melanoma,> 100 µM
same,TGI,NCI-H226 lung,> 100 µM
same,TGI,RPMI-8226 leukemia,> 69.1 µM
same,TGI,HCT-15 colon,> 100 µM
same,TGI,A549 NSCLC,> 100 µM
same,TGI,OVCAR-5 ovarian,> 100 µM
same,TGI,HOP-62 NSCLC,> 100 µM
same,TGI,CAKI-1 renal,> 100 µM
same,TGI,U251 CNS,> 100 µM
same,TGI,TK-10 renal,> 100 µM
same,TGI,UACC-62 melanoma,> 100 µM
same,TGI,LOX IMVI melanoma,> 100 µM
same,TGI,A498 renal,> 100 µM
same,TGI,NCI-H460 lung,> 100 µM
same,TGI,RXF 393 renal,> 100 µM
same,TGI,K-562 leukemia,> 100 µM
same,TGI,EKVX NSCLC,> 100 µM
same,TGI,HOP-18 NSCLC,> 100 µM
same,TGI,OVCAR-4 ovarian,> 100 µM
same,TGI,UACC-257 melanoma,> 100 µM
COc1ccc(C(=O)C#Cc2c[nH]c(=O)[nH]c2=O)cc1,TGI,MOLT-4 leukemia,8.19 µM
same,TGI,SNB-78 CNS,37.9 µM
same,TGI,CCRF-CEM leukemia,10.8 µM
same,TGI,NCI-H23 lung,32.8 µM
same,TGI,SK-MEL-28 melanoma,30.1 µM
same,TGI,HCT-116 colon,18.3 µM
same,TGI,SF-539 CNS,19.3 µM
same,TGI,RXF-631 renal,34.1 µM
same,TGI,HT29 colon,28 µM
same,TGI,LXFL 529 NSCLC,12.2 µM
same,TGI,SF-268 CNS,55.3 µM
same,TGI,HCC-2998 colon,36.4 µM
same,TGI,SNB-19 CNS,44.7 µM
same,TGI,UO-31 renal,35.2 µM
same,TGI,ACHN renal,30.5 µM
same,TGI,M14 melanoma,18 µM
same,TGI,DMS 273 small cell lung,30.4 µM
same,TGI,NCI-H522 lung,10.6 µM
same,TGI,SN12C renal,19.4 µM
same,TGI,SK-MEL-2 melanoma,21.4 µM
same,TGI,DLD-1 colon,24.6 µM
same,TGI,SR leukemia,8.38 µM
same,TGI,SNB-75 CNS,45.5 µM
same,TGI,SK-MEL-5 melanoma,27.9 µM
same,TGI,SK-OV-3 ovarian,> 100 µM
same,TGI,COLO 205 colon,24.8 µM
same,TGI,KM12 colon,> 52.6 µM
same,TGI,HOP-92 NSCLC,41.8 µM
same,TGI,HL-60(TB) leukemia,23.3 µM
same,TGI,IGROV1 ovarian,> 62.9 µM
same,TGI,KM20L2 colon,22.8 µM
same,TGI,786-0 renal,25 µM
same,TGI,OVCAR-8 ovarian,32.5 µM
same,TGI,SF-295 CNS,96.2 µM
same,TGI,SW-620 colon,26.7 µM
same,TGI,DMS 114 small cell lung,46.7 µM
same,TGI,OVCAR-3 ovarian,21.6 µM
same,TGI,M19-MEL melanoma,21.9 µM
same,TGI,MALME-3M melanoma,18.7 µM
same,TGI,NCI-H226 lung,42.4 µM
same,TGI,RPMI-8226 leukemia,41.6 µM
same,TGI,HCT-15 colon,20.9 µM
same,TGI,A549 NSCLC,> 59.6 µM
same,TGI,OVCAR-5 ovarian,31 µM
same,TGI,HOP-62 NSCLC,47.7 µM
same,TGI,CAKI-1 renal,24.8 µM
same,TGI,U251 CNS,22.7 µM
same,TGI,TK-10 renal,23.3 µM
same,TGI,UACC-62 melanoma,32.8 µM
same,TGI,LOX IMVI melanoma,9.52 µM
same,TGI,A498 renal,49.9 µM
same,TGI,NCI-H460 lung,73.9 µM
same,TGI,RXF 393 renal,18.3 µM
same,TGI,K-562 leukemia,37.3 µM
same,TGI,EKVX NSCLC,> 54.4 µM
same,TGI,HOP-18 NSCLC,> 50.1 µM
same,TGI,OVCAR-4 ovarian,33.1 µM
same,TGI,UACC-257 melanoma,27.4 µM
